Earlier results in patent US20060135599A1, “Use for pharmaceutical composition” (GW Pharma Limited, priority 2002, published 2006).

Columns and labels:
spasticity [1] = details: oral, 13 patients
spasticity [2] = details: oral, nine patients

## CCCCCc1cc(O)c2c(c1)OC(C)(C)[C@@H]1CCC(C)=C[C@@H]21 [oral THC, Δ^9 tetrahydrocannabinol]
Spasticity [1]
  subjective improvements in spasticity: significant subjective improvements
Spasticity [2]
  spasticity compared with placebo: statistically significant reduction
